The target in experiment [1] is T1, Serine protease 1 (Bos taurus, UniProt P00760).
T1 sequence (P00760 whole entry): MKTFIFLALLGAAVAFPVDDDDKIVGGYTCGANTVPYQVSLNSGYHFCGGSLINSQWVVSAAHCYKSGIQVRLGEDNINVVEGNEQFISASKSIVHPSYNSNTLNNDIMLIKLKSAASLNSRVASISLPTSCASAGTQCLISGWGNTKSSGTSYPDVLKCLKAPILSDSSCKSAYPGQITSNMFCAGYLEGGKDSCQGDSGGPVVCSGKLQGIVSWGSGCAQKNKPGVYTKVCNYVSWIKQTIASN
In words: Compound (isomer) was tested in the absence of light for inhibitory activity against trypsin.

In experiment [2] the target is Coagulation factor X (Homo sapiens, UniProt P00742). Briefly: Compound (isomer) was tested in the absence of light for inhibitory activity against Human Coagulation factor X.
Coagulation factor X, sequence (P00742 41-179 limits assumed): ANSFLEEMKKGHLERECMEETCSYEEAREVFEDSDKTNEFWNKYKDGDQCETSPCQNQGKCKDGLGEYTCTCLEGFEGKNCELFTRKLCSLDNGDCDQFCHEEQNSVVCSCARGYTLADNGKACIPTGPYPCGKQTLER
Coagulation factor X, sequence (P00742 235-488 limits assumed): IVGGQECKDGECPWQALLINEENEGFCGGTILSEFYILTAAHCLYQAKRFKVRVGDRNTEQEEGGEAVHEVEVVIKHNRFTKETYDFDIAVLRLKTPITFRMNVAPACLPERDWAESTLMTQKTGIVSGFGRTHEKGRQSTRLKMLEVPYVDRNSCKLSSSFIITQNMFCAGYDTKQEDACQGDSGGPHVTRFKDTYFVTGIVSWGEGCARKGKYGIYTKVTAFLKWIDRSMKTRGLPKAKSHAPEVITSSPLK
Experiment [3] has as its target Prothrombin (Homo sapiens, UniProt P00734). Briefly: Compound (isomer) was tested in the absence of light for inhibitory activity against thrombin.

Consider `N=C(N)c1ccc(/C=C2\CCCC/C(=C\c3ccc(C(=N)N)cc3)C2=O)cc1`, for which the Ki (in general, the dissociation constant of the complex between target and ligand, obtained from inhibition or displacement) in experiment [1] worked out at 280 nM; in experiment [2], 17000 nM.
With `N=C(N)c1ccc(/C=C2/CCCC/C(=C\c3ccc(C(=N)N)cc3)C2=O)cc1`, the results for the Ki in experiment [1] and in experiment [3] were 29 nM and 130 nM, respectively.

The record behind these values is ChEMBL document CHEMBL1131630, “(Z,Z)-2,7-Bis(4-amidinobenzylidene)cycloheptan-1-one: identification of a highly active inhibitor of blood coagulation factor Xa” (J Med Chem, 1998).
